The values below come from patent US7271188B2, “Imidazolidine derivatives” (Chugai Seikayu Kabushiki Kaisha, priority 2003, dated 2007).

The target in data set [1] is T1, human androgen receptor (Homo sapiens, UniProt P10275).
T1 construct: expressed in transfected cells; host or cells: HeLa cells (clone 11A11B2), stably co-transfected with MMTV-Luc-Hyg reporter
T1 sequence (P10275 1-920): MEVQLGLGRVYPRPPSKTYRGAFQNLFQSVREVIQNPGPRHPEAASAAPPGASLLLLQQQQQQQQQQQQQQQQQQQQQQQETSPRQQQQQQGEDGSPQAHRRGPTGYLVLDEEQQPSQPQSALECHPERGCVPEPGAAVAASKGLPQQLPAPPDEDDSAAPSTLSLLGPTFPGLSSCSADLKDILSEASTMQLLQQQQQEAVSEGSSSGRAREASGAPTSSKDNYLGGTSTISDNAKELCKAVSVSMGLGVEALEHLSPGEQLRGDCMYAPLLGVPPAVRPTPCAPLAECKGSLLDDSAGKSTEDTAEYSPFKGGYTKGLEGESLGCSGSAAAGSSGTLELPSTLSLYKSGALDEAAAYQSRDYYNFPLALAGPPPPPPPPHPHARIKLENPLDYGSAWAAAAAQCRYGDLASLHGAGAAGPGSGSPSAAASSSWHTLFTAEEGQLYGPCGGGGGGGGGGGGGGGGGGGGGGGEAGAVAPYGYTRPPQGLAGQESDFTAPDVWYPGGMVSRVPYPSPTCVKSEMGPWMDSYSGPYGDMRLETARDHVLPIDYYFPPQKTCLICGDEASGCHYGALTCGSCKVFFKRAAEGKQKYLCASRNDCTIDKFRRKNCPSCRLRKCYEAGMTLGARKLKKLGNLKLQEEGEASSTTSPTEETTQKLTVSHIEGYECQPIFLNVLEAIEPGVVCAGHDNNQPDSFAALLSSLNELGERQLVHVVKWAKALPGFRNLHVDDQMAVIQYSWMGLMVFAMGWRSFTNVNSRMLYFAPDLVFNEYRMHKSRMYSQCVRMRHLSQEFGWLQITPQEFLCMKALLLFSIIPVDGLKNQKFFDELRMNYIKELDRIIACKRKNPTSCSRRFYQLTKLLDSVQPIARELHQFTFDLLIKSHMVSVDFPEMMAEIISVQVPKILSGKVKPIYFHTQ
Nature of the data set: Test Example 1: agonist effect, androgen receptor reporter gene assay in 11A11B2 cells. It counts as cell-based. The settings on record: compound concentration showing transcription activity of 5% (0.1 nmol/L DHT = 100%, assay medium alone = 0%), 48 hours. Here is the method:
(§1) HeLa cells (purchased from Dai-Nippon Seiyaku K. K.) were cultured overnight in Dulbecco's Modified Eagle Medium containing no phenol red, but containing 3% charcoal-treated fetal bovine serum (hereafter referred to as DCC-FBS) (this medium is hereafter referred to as phenol-red-free DMEM). An MMTV-Luc-Hyg vector (reporter plasmid with […], containing an androgen response element and a hygromycin resistance gene: a vector obtained by substituting the chloramphenicol acetyl transferease gene of a GM-CAT vector (A.T.C.C No. 67282) purchased from the A.T.C.C. for the firefly luciferase gene, and inserting a hygromycin resistance gene), and pSG5-hAR-neo (human androgen receptor expression vector: a vector having an androgen receptor gene under the control of the SV40 promoter, and having a neomycin resistance gene inserted as a drug resistance gene) were transfected into the HeLa cells using an FuGENE™ 6 Transfection Reagent (obtained from Roche).
(§2) The clone cells thus obtained (11A11B2 cells) were maintained and propagated using DMEM containing 400 μg/mL neomycin, 200 μg/mL hygromycin and 10% FBS, and were propagated using phenol-red-free DMEM containing 10% DCC-FBS three to four days prior to the performance of an androgen receptor reporter gene assay.
The 11A11B2 cells were inoculated in a white clear-bottomed 96-well microplate (COSTAR) so that the cell concentration was 1.0×10^4/well, and were cultured overnight using phenol-red-free DMEM containing 3% DCC-FBS (hereafter referred to as the assay medium). Samples of the assay medium containing the compounds of the examples and compounds of the comparative examples were added so that the final concentrations of the compounds of the examples and compounds of the comparative examples were 1, 10, 100, 1,000 and 10,000 nmol/L (however, in the case of the compounds of Examples 1 and 2, the compounds were added so that the final concentrations were 1, 10, 100, 1,000, 10,000 and 100,000 nmol/L), and the cells were cultured for 48 hours, after which the transcription activity value was measured. The transcription activity was measured using a Bright-Glo™ Luciferase Assay System (Promega).
The transcription activity rates of the compounds of the examples were calculated from the transcription activity measured by the abovementioned method, with the transcription activity value obtained at 0.1 nmol/L DHT taken as 100%, and the transcription activity value in the case of the assay medium alone taken as 0%. The compound concentration showing a transcription activity of 5% (EC5 value) was calculated from a linear equation for two points on either side of 5%.
On the technique in general: A reporter such as luciferase makes a cellular process visible.

In data set [2] the target is T1, human androgen receptor. Nature of the data set: Test Example 2: antagonist effect, androgen receptor reporter gene assay in 11A11B2 cells with 0.1 nmol/L DHT. It counts as cell-based. Here is the method: as §1, §2
The 11A11B2 cells were inoculated in a white clear-bottomed 96-well microplate (COSTAR) so that the cell concentration was 1.0×10^4/well, and were cultured overnight using phenol-red-free DMEM containing 3% DCC-FBS (hereafter referred to as the assay medium). The assay medium containing DHT was added so that the final concentration of DHT was 0.1 nmol/L, and samples of the assay medium containing the compounds of the examples or compounds of the comparative examples were added so that the final concentrations of the compounds of the examples or compounds of the comparative examples were 1, 10, 100, 1,000 and 10,000 nmol/L, respectively. After culturing for 48 hours, the transcription activity values were measured. The transcription activity was measured using a Bright-Glo™ Luciferase Assay System (Promega).
The transcription activity rates of the compounds of the examples were calculated from the transcription activity measured by the abovementioned method, with the transcription activity value obtained at 0.1 nmol/L DHT taken as 100%, and the transcription activity value in the case of the assay medium alone taken as 0%.
Accordingly, the value obtained by subtracting the transcription activity rate of Test Example 1 (Investigation of Agonist Activity) from the transcription activity rate of Test Example 2 (Investigation of Antagonist Activity) was used to calculate the compound concentration at which a transcription activity of 50% was shown (IC50 value). The IC50 value was calculated from a linear equation for two points on either side of 50%.

For data set [3] the following is noted: reports; cited from earlier work.
For another data set, the target named is androgen receptor (Homo sapiens, UniProt P10275). The settings on record: at a concentration of 10 μmol/L; cited from earlier work.
For data set [4] the following is noted: prostate cancer patients treated with flutamide; cited from earlier work.
A further data set deals with castrated rats. The settings on record: continuously administered to castrated rats for two weeks; cited from earlier work.
The mark [5] stands for this setting: concentration giving 50% transcription activity after subtracting the Test Example 1 agonist rate, 0.1 nmol/L DHT, 11A11B2 cells, 48 hours, read-out: IC50.

Each structure is given as a SMILES string. Where two headings read alike, the source gives them in different places. Some results are limits rather than exact numbers.

As usually defined, the IC50 is the concentration at which inhibition is half-maximal. On to `CN(C)S(=O)(=O)CCCCN1C(=S)N(c2ccc(C#N)c(C(F)(F)F)c2)C(=O)C1(C)C` [Example 8, 4-[3′-(4″-N,N-dimethylaminosulfonylbutyl)-4′,4′-dimethyl-5′-oxo-2′-thioxo-1′-imidazolidinyl]-2-trifluoromethylbenzonitrile], for which, on human androgen receptor [1], the EC5 was 2000 nM. In addition, the IC50 on human androgen receptor [2] came to 100 nM. With `CC1(C)C(=O)N(c2ccc(C#N)c(C(F)(F)F)c2)C(=S)N1CCCCS(N)(=O)=O` [Example 2, 4-[3′-(4″-aminosulfonylbutyl)-4′,4′-dimethyl-5′-oxo-2′-thioxo-1′-imidazolidinyl]-2-trifluoromethylbenzonitrile], the EC5 at human androgen receptor [1] was more than 100000 nM. For the same compound, the IC50 on human androgen receptor [2] (setting [5]) was 600 nM. `CC1(C)C(=O)N(c2ccc(C#N)c(C(F)(F)F)c2)C(=S)N1CCCCCCS(N)(=O)=O` [Example 3, 4-[3′-(6″-aminosulfonylhexyl)-4′,4′-dimethyl-5′-oxo-2′-thioxo-1′-imidazolidinyl]-2-trifluoromethylbenzonitrile] had an EC5 at human androgen receptor [1] of 3000 nM. In addition, the IC50 at human androgen receptor [2] (setting [5]) came to 200 nM.

`CN1C(=S)N(c2ccc(C#N)c(C(F)(F)F)c2)C(=O)C1(C)C` [Comparative Example 1, 4-(5-oxo-2-thioxo-3,4,4-trimethyl-1-imidazolidinyl)-2-trifluoromethylbenzonitrile, reference compound]: the EC5 at human androgen receptor [1] was determined as 0.08 nM. Also, the concentration for half-maximal inhibition (IC50) against human androgen receptor [2] is 1 nM. Regarding `CC(C)C(=O)Nc1ccc([N+](=O)[O-])c(C(F)(F)F)c1` [flutamide], the side effects result in data set [3] is listed as “liver toxicity”. Consider `CC1(C)C(=O)N(c2ccc(C#N)c(C(F)(F)F)c2)C(=S)N1CCCS(N)(=O)=O` [Example 1, 4-[3′-(3″-aminosulfonylpropyl)-4′,4′-dimethyl-5′-oxo-2′-thioxo-1′-imidazolidinyl]-2-trifluoromethylbenzonitrile], for which the EC5 at human androgen receptor [1] came out at 20000 nM. The half-maximal inhibitory concentration (IC50) against human androgen receptor [2] came out at 200 nM.

Take `CNS(=O)(=O)CCCCN1C(=S)N(c2ccc(C#N)c(C(F)(F)F)c2)C(=O)C1(C)C` [Example 16, 4-[3′-(4″-N-methylaminosulfonylbutyl)-4′,4′-dimethyl-5′-oxo-2′-thioxo-1′-imidazolidinyl]-2-trifluoromethylbenzonitrile]: the EC5 at human androgen receptor [1] was more than 10000 nM. The IC50 on human androgen receptor [2] (setting [5]) was determined as 700 nM. In turn, `CC1(C)C(=O)N(c2ccc(C#N)c(C(F)(F)F)c2)C(=S)N1CCS(N)(=O)=O` [Example 18, 4-[3′-(2″-aminosulfonylethyl)-4′,4′-dimethyl-5′-oxo-2′-thioxo-1′-imidazolidinyl]-2-trifluoromethylbenzonitrile] came in with an EC5 at human androgen receptor [1] of 7000 nM. Moreover, the concentration for half-maximal inhibition (IC50) against human androgen receptor [2] turned out to be 600 nM. `CC(C)(O)C(=O)Nc1ccc([N+](=O)[O-])c(C(F)(F)F)c1` [Comparative Example 4, hydroxyflutamide] showed an EC5 at human androgen receptor [1] of 10 nM. In addition, the “androgen receptor transcription activity” value at androgen receptor was “increase in androgen receptor transcription activity”. Besides, the “concentration in the blood” value in data set [4] is on record as “several”. With `CC(=O)NCCN1C(=S)N(c2ccc(C#N)c(C(F)(F)F)c2)C(=O)C1(C)C` [Comparative Example 2, 4-[3′-(2″-N-acetylaminoethyl)-4′,4′-dimethyl-5′-oxo-2′-thioxo-1′-imidazolidinyl]-2-trifluoromethylbenzonitrile, reference compound], the EC5 at human androgen receptor [1] came out at 3000 nM. At human androgen receptor [2] (setting [5]), the IC50 was determined as 800 nM.

Take `CC(O)(CS(=O)(=O)c1ccc(F)cc1)C(=O)Nc1ccc(C#N)c(C(F)(F)F)c1` (stereo not drawn) [Comparative Example 3, bicalutamide]: the side effects result in data set [3] is “liver toxicity”.

Compound `CC1(C)C(=O)N(c2ccc(C#N)c(C(F)(F)F)c2)C(=S)N1CCCCCS(N)(=O)=O` [Example 7, 4-[3′-(5″-aminosulfonylpentyl)-4′,4′-dimethyl-5′-oxo-2′-thioxo-1′-imidazolidinyl]-2-trifluoromethylbenzonitrile] came in with an EC5 on human androgen receptor [1] of more than 10000 nM. The half-inhibitory concentration (IC50) at human androgen receptor [2] (setting [5]) was found to be 900 nM. Turning to `CN(C)S(=O)(=O)CCCCCN1C(=S)N(c2ccc(C#N)c(C(F)(F)F)c2)C(=O)C1(C)C` [Example 10, 4-[3′-(5″-N,N-dimethylaminosulfonylpentyl)-4′,4′-dimethyl-5′-oxo-2′-thioxo-1′-imidazolidinyl]-2-trifluoromethylbenzonitrile], the EC5 at human androgen receptor [1] was found to be 2000 nM. In addition, the half-maximal inhibitory concentration (IC50) at human androgen receptor [2] (setting [5]) was 200 nM.

Take `CC(=O)O[C@]1(C(C)=O)CC[C@H]2[C@@H]3C=C(Cl)C4=CC(=O)CC[C@]4(C)[C@H]3CC[C@@]21C` [chlormadinone acetate]: the “weight of the prostate gland” value with castrated rats is reported as “increase in the weight of the prostate gland”. Consider `CC(=O)O[C@]1(C(C)=O)CC[C@H]2[C@@H]3C=C(Cl)C4=CC(=O)[C@@H]5C[C@@H]5[C@]4(C)[C@H]3CC[C@@]21C` [cyproterone acetate], for which the “weight of the prostate gland” value with castrated rats is “increase in the weight of the prostate gland”.
